Laboratory results: PubChem BioAssay AID1996
In brackets after ≈: the same amount, converted by molar mass.

conditions: buffer; pH 7.4; 200.0 µM

Structure (SMILES) | solubility kinetic [µg/mL]
COc1ccc(CNc2ccc3c(c2)CCC3)cc1Br | 5.6 (≈ 16.9 µM)
COc1ccc(CNc2ccccn2)c(O)c1 | > 34.5
COc1ccccc1C1=NOC(CN2C(=O)c3ccccc3S2(=O)=O)C1 (centres undefined) | 34.6 (≈ 92.9 µM)
CCn1c(SCC(=O)Nc2nccs2)nnc1C1CC1 | > 46.4
Cn1cnnc1Sc1ccc(S(C)(=O)=O)cc1[N+](=O)[O-] | > 47.1
CC(c1ccccc1)n1c(CCCO)nc2ccccc21 (centres undefined) | > 42.1
CN(CC(=O)Nc1ccc(N2CCOCC2)cc1)C(=O)c1ccc(CS(C)(=O)=O)cc1 | > 66.8
O=C1CNC(=S)N1Cc1ccccc1Cl | > 36.1
COc1ccccc1OCCC(=O)OCC(=O)NCc1ccc(F)cc1 | 23.5 (≈ 65 µM)
Cl.c1coc(C2=NCCc3ccccc32)c1 | 27.9
Clc1cccc(OCCCn2ccnc2)c1 | > 35.5
Nc1nonc1OCCN1CCN(c2ccc([N+](=O)[O-])c3cccnc23)CC1 | 9.1 (≈ 23.6 µM)
Cc1ccc(NC(=S)Nc2ccc(F)cc2)cc1 | 11.1 (≈ 42.6 µM)
COc1ccc(NC(=O)CCC(=O)N2CCCC2)c([N+](=O)[O-])c1 | > 48.2
O=C(CN1CCCC1)OCCCC1CCCCC1 | 17.9 (≈ 70.6 µM)
Cc1cnc(C(=O)OCC(=O)Nc2cc(Cl)ccc2C#N)cn1 | > 49.6
CSc1ccc(Cl)c(C(=O)Nc2nccs2)c1 | 2.8 (≈ 9.83 µM)
Cc1cn(C2CC(OC(=O)C(C)C)C(CO)O2)c(=O)[nH]c1=O (centres undefined) | > 46.8
CCOc1ncccc1C(=O)OCc1c(F)cccc1Cl | 4.6 (≈ 14.9 µM)
COc1ccc(CNC(=O)c2cc(=O)c3ccccc3o2)cc1 | 12 (≈ 38.8 µM)
CSCCC(NC(=O)c1ccco1)C(=O)NNC(=O)c1n[nH]c(=O)c2ccccc12 (centres undefined) | > 64.4
Cc1ccc(-n2c(-c3ccccc3)c[nH]c2=S)cc1 | 0.6 (≈ 2.25 µM)
O=C(O)C1=NN(c2c(F)c(F)cc(F)c2F)C(=O)CC1 | > 43.5
O=[N+]([O-])c1ccc(CSc2ncnc3ccccc23)cc1 | 5.6 (≈ 18.8 µM)
O=S(=O)(Nc1ccc(C(F)(F)F)cc1)c1cccs1 | 45.1 (≈ 147 µM)
COc1ccc(CC(C)CC(=O)Nc2ccc(OC)cc2)cc1 (centres undefined) | 4.6 (≈ 14.7 µM)
COc1ccc(C(=O)CCC(=O)NC2=NCCS2)cc1 | 14.6 (≈ 49.9 µM)
NCCNC[C@@H]1COC2(CCCCCCCCCCC2)O1 | 32.7 (≈ 110 µM)
Cc1ccc(Cn2c(CCC(=O)O)nc3ncccc3c2=O)cc1 | > 48.5

Other lines, results leading:

solubility kinetic [µg/mL] | Structure (SMILES)
> 46.3 | O=C(CSc1nc2ccccc2s1)NCC1CCCO1 (centres undefined)
2.4 (≈ 8.07 µM) | Cc1ccc(C23CC4CC(CC(C(=O)N(C)C)(C4)C2)C3)cc1
> 43.1 | COC(=O)C(C)NC(=O)COc1ccc2ccccc2c1 (centres undefined)
11 (≈ 31.8 µM) | CC(=O)c1c(C)nc(-c2ccccc2)nc1NC(=O)Cc1ccccc1
> 55.6 | COc1ccc(CC(=O)NCC(=O)NC(Cc2ccccc2)C(=O)O)cc1 (centres undefined)
< 0.6 | Cc1ccc(S(=O)(=O)N2CCc3ccccc3C2)cc1C
37.5 (≈ 136 µM) | COc1ccccc1CCNC(=O)Cc1cccs1
> 46.4 | Cn1c(CC(=O)NNC(=O)c2cccnc2)nc2ccccc21
33.5 (≈ 140 µM) | O=C(C(Cl)c1ccccc1)N1CCOCC1 (centres undefined)
41 | COc1ccccc1NC(=O)C[n+]1ccccc1C.[Cl-]
> 43.1 | CCOC(=O)C1Nc2ccc(C(=O)O)cc2C2C=CCC12 (centres undefined)
3.8 (≈ 11.2 µM) | COc1ccc(C(=O)NCC2(c3ccccc3)CCCC2)c(OC)c1
> 40.4 | Cc1ccc(C2SCC(=O)N2c2ccccc2)cc1 (centres undefined)
> 39.1 | CC1(C)CC(NC(=O)c2ccccc2)CC(C)(C)N1
32.4 (≈ 79.1 µM) | Cc1ccc(-n2c(SCC(=O)NCC3CCCO3)nc3ccccc3c2=O)cc1 (centres undefined)
> 57.9 | O=C(Cc1ccccc1)NCC(=O)N1CCN(Cc2cccc(Cl)c2)CC1
1.7 (≈ 4.98 µM) | CNC(=O)c1cc(C(=O)c2ccc(Cl)cc2)c(Br)[nH]1
4.2 (≈ 14.1 µM) | Cc1nc(N(C)Cc2ccccc2)c2c(C)c(C)sc2n1
45.9 (≈ 146 µM) | O=C(c1ccccc1SCc1ccccc1)N1CCOCC1
18.1 (≈ 64.1 µM) | O=C(CC1CCCC1)Nc1cccc(Br)c1
